Experimental data taken from the supplement of paper PMC10307832.

Experiments:
Assay in all cases: relative viability (nuclei count vs DMSO), 5 days (fraction); higher = more cells survive
[1] = compound: C1=CC2=C(C=C(C(=C2N=C1)O)N=NC3=CC4=C(C=C3)C=C(C=C4)S(=O)(=O)O)S(=O)(=O)O + CC(C)C[C@H](NC(=O)[C@H](Cc1ccccc1)NC(=O)c1cnccn1)B(O)O [Bortezomib] (partner 0.002 µM)
Outline: (§1)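 Lung cancer cell lines were pin-tool dosed in 1536-well plates on the day after seeding, with either a lone drug or a fixed anchor-drug dose plus five library-drug doses (not always all listed) in √10 steps. Nuclei were counted on 4× images after 5 days. Relative viability is the ratio of treated-well to vehicle-well nuclei counts, with each value a median of duplicate plates.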

[2] = compound: O=C(NC1CCNCC1)c1n[nH]cc1NC(=O)c1c(Cl)cccc1Cl [AT-7519] + CC(=O)c1c(C)c2cnc(Nc3ccc(N4CCNCC4)cn3)nc2n(C2CCCC2)c1=O [Palbociclib] (partner 0.5 µM)
Outline: as §1

[3] = compound: C1=CC2=C(C=C(C(=C2N=C1)O)N=NC3=CC4=C(C=C3)C=C(C=C4)S(=O)(=O)O)S(=O)(=O)O + C[C@]1(O)C[C@@H](c2nc(-c3ccc4ccc(-c5ccccc5)nc4c3)c3c(N)nccn32)C1 [Linsitinib] (partner 1 µM)
Outline: as §1

[4] = compound: O=C(NC1CCNCC1)c1n[nH]cc1NC(=O)c1c(Cl)cccc1Cl [AT-7519] + Cc1nc(Nc2ncc(C(=O)Nc3c(C)cccc3Cl)s2)cc(N2CCN(CCO)CC2)n1 [Dasatinib] (partner 0.075 µM)
Outline: as §1

Cell Line	relative viability ([1]; first compound 0.08 µM)	relative viability ([1]; first compound 0.253 µM)	relative viability ([1]; first compound 0.8 µM)	relative viability ([1]; first compound 2.53 µM)	relative viability ([1]; first compound 8 µM)	relative viability ([2]; first compound 0.01 µM)	relative viability ([2]; first compound 0.03162 µM)	relative viability ([2]; first compound 0.3162 µM)	relative viability ([2]; first compound 1 µM)	relative viability ([3]; first compound 0.08 µM)	relative viability ([3]; first compound 0.253 µM)	relative viability ([3]; first compound 0.8 µM)	relative viability ([3]; first compound 2.53 µM)	relative viability ([3]; first compound 8 µM)	relative viability ([4]; first compound 0.01 µM)	relative viability ([4]; first compound 0.03162 µM)	relative viability ([4]; first compound 0.3162 µM)	relative viability ([4]; first compound 1 µM)
NCI-H2228	1.17	1.01	0.917	1.01	0.96	0.638	0.642	0.636	0.408	0.653	0.611	0.598	0.634	0.777	0.407	0.464	0.516	0.352
NCI-H2347	1.23	0.962	0.982	0.98	0.955	0.397	0.44	0.469	0.374	1.01	0.894	0.881	1.03	1.03	0.375	0.32	0.356	0.0926
NCI-H2405	1.04	0.952	0.979	0.935	0.4	0.534	0.523	0.532	0.381	0.909	0.873	0.943	1.04	0.948	0.203	0.216	0.199	0.219
NCI-H3122	0.975	0.899	1.02	0.996	0.987	0.212	0.506	0.221	0.145	0.998	0.962	0.969	1.01	0.96	0.917	0.805	0.809	0.354
PC-3 [JPC-3]	0.908	0.849	0.768	0.794	0.851	0.591	0.548	0.508	0.575	0.998	0.93	0.94	0.965	0.97	0.841	0.99	0.915	1.04
PC-14	0.923	0.839	0.906	0.888	0.856	0.433	0.502	0.338	0.0604	1.03	0.936	0.962	0.948	1.1	0.241	0.239	0.163	0.0573
RERF-LC-KJ	1.39	1.1	1.08	1.2	1.14	1.09	1.13	0.86	0.55	0.945	0.954	0.888	0.979	0.87	0.903	0.847	0.611	0.195
SK-LU-1	1.05	0.942	0.963	1.1	0.99	0.38	0.361	0.361	0.311	1.38	1.13	1.14	1.14	1.03	0.171	0.155	0.157	0.163
SW 1573	0.931	1.02	1.04	0.976	1.03	0.38	0.368	0.212	0.109	0.779	0.734	0.816	0.875	0.75	0.762	0.466	0.255	0.0794
